Values of other authors as cited in Sander's compilation of Henry's law constants (doi:10.1080/10643389609388492).

Assay: Henry solubility constant Hcp at 298.15 K (mol/(m3 Pa))
Conditions: reference: Staudinger and Roberts (1996); cited value
In the case of `ClCC(Cl)Cl` [1,1,2-trichloroethane], the “Henry solubility constant Hcp” value is given as 0.011.
For `Cc1ccccc1C` [1,2-dimethylbenzene], the “Henry solubility constant Hcp” value is given as 0.0019.
For `CC(Cl)CCl` (stereo not given) [1,2-dichloropropane], the “Henry solubility constant Hcp” value is given as 0.0034.
For `ClC(Cl)=C(Cl)Cl` [tetrachloroethene], the “Henry solubility constant Hcp” value is given as 0.00058.
For `CCc1ccccc1` [ethylbenzene], the “Henry solubility constant Hcp” value is given as 0.0012.
In the case of `CC(Cl)(Cl)Cl` [1,1,1-trichloroethane], the “Henry solubility constant Hcp” value is listed as 0.00058.
For `C=C(Cl)Cl` [1,1-dichloroethene], the “Henry solubility constant Hcp” value is listed as 0.00034.
In the case of `BrC(Br)Br` [tribromomethane], the “Henry solubility constant Hcp” value is listed as 0.017.
For `ClC=C(Cl)Cl` [trichloroethene], the “Henry solubility constant Hcp” value is given as 0.00099.
In the case of `ClC(Cl)(Cl)Cl` [tetrachloromethane], the “Henry solubility constant Hcp” value is given as 0.00034.
In the case of `C=CCl` [chloroethene], the “Henry solubility constant Hcp” value is listed as 0.00039.
For `ClC(Cl)Br` [bromodichloromethane], the “Henry solubility constant Hcp” value is given as 0.004.
For `ClC(Cl)(Cl)C(Cl)(Cl)Cl` [hexachloroethane], the “Henry solubility constant Hcp” value is given as 0.0025.
For `ClC(Cl)C(Cl)Cl` [1,1,2,2-tetrachloroethane], the “Henry solubility constant Hcp” value is given as 0.024.
For `Clc1ccccc1` [chlorobenzene], the “Henry solubility constant Hcp” value is given as 0.0027.
In the case of `c1ccccc1` [benzene], the “Henry solubility constant Hcp” value is listed as 0.0016.
For `Cc1cccc(C)c1` [1,3-dimethylbenzene], the “Henry solubility constant Hcp” value is listed as 0.0013.
In the case of `ClCC(Cl)CCl` [1,2,3-trichloropropane], the “Henry solubility constant Hcp” value is given as 0.034.
In the case of `O=Cc1ccccc1` [benzaldehyde], the “Henry solubility constant Hcp” value is listed as 0.39.
In the case of `CCCl` [chloroethane], the “Henry solubility constant Hcp” value is given as 0.00083.
In the case of `Cc1ccc(C)cc1` [1,4-dimethylbenzene], the “Henry solubility constant Hcp” value is listed as 0.0013.
For `Cc1ccccc1` [methylbenzene], the “Henry solubility constant Hcp” value is listed as 0.0015.
In the case of `ClCCl` [dichloromethane], the “Henry solubility constant Hcp” value is listed as 0.0036.
For `CC(C)=O` [propanone], the “Henry solubility constant Hcp” value is listed as 0.3.
In the case of `ClC(Br)Br` [dibromochloromethane], the “Henry solubility constant Hcp” value is given as 0.0085.
